What was measured:
Spo20p-GFP = target: T1, Spo20p-GFP (Saccharomyces cerevisiae, UniProt Q04359); experiment: Recruitment of Spo20p-GFP to the plasma membrane of PC12 cells after incubation with GPL (confocal microscopy); format: cell-based; details: GPL 100 μM, 5 min incubation, PC12 cells expressing Spo20p-GFP, FIG. 1
T1 construct: expressed in transfected cells; host or cells: PC12 cells
T1 sequence (Q04359 51-91 limits assumed): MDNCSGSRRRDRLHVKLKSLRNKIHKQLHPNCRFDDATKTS
Method: This example illustrates the interaction between GPL (Ia) or (Ib) and a phosphatidic acid (PA) mobilizing protein, the green-fluorescent protein Spo20p-GFP, expressed in target cells.
For this purpose, GPL (Ia) and, for comparative purposes, a natural GPL PA 18:1-18:0 (referred to hereinbelow as GPL C1) sold under reference 840861C by Avanti Polar Lipids, are incubated for 5 min at a concentration of 100 μM, with PC12 cells expressing Spo20p-GFP.
Similarly, GPL (Ib) and, for comparative purposes, a natural GPL PA 18:2-18:0 (referred to hereinbelow as GPL C2) sold under reference 840862C by Avanti Polar Lipids, are incubated for 5 min at a concentration of 100 μM, with PC12 cells expressing Spo20p-GFP.
The GPL-free cell medium is used as a control (referred to hereinbelow as […]).
A marker referred to hereinbelow as Membright (obtained from Mayeul Collot UMR-7021, Strasbourg) is incubated for 5 minutes on cells in media as prepared above to specifically mark the cells' plasma membrane.

[1] = Formation of giant liposomes (96% DOPC / 4% GPL) by PVA-assisted swelling, light and confocal microscopy; format: physicochemical; details: liposomes 96% by mass DOPC and 4% by mass GPL, 1 mM, FIG. 3 and 4
Method: (§1) For this purpose, giant liposomes composed of 96% by mass of dioleoylphosphatidylcholine (DOPC) and 4% by mass of GPL (XIVa), and, for comparative purposes, giant liposomes composed of 96% by mass of dioleoylphosphatidylcholine (DOPC) and 4% by mass of a natural GPL modified with a nitrobenzadiazole-based fluorophore: PA 18:1-6:0 NBD sold under the reference 810175C by Avanti Polar Lipids, at a concentration of 1 mM, are prepared using the polyvinyl alcohol (PVA)-assisted swelling method as described in Carmon et al., FASEB J., 2020, 34:6769-6790).

CgA-AF633 = target: T2, CgA-AF633 (Homo sapiens, UniProt P10645); experiment: Interaction of CgA-AF633 protein with giant liposomes containing GPL (confocal microscopy); format: binding; details: CgA-AF633 4 μM, liposomes 96% DOPC / 4% GPL, FIG. 5
T2 sequence (P10645 19-457): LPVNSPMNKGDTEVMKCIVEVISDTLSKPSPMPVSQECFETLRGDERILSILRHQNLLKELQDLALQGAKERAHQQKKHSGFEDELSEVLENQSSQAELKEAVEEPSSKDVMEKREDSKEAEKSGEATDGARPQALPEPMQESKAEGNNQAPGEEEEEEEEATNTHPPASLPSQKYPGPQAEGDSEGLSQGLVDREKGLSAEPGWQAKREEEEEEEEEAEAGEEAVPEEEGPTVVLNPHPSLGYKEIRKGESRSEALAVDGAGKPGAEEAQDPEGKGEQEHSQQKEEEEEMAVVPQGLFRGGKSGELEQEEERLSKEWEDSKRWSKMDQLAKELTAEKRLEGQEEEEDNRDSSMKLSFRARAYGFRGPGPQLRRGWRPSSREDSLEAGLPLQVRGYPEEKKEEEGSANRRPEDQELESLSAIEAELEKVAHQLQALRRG
Text: This example illustrates the interaction between GPL (XIVa), which fluoresces green (by means of a nitrobenzadiazole-based fluorophore), and a red-fluorescent phosphatidic acid (PA) mobilizing protein, CgA-AF633.
as §1
CgA, rendered red-fluorescent due to its coupling with the fluorophore Alexa 633 or AF633 (CgA-AF633), is incubated at 4 μM concentration with liposomes as prepared above. […]

Row | membrane deformations in the liposomes on incubation with CgA-AF633 (CgA-AF633) | Structure (SMILES) | recruitment of the Spo20p-GFP protein to the plasma membrane (Spo20p-GFP) | participation in the formation of giant liposomes [1] | interaction of the CgA-AF633 protein with liposomes containing the GPL (CgA-AF633)
1 | – | CCCCCCCC/C=C\CCCCCCCC(=O)O[C@@H](COP(=O)(O)O)[C@H](CN=[N+]=[N-])OC(=O)CCCCCCCCCCCCCCCCC [GPL (Ia), (2S,3S)-4-azido-2-(oleoyloxy)-3-(stearoyloxy)butyl hydrogen phosphate] | bring about recruitment of the Spo20p-GFP protein to the plasma membrane of PC12 cells in the same manner as do the corresponding natural GPLs | – | –
2 | does result in membrane deformations | CCCCCCCC/C=C\CCCCCCCC(=O)O[C@@H](COP(=O)(O)O)[C@H](Cn1nnc2c1-c1ccccc1CN(C(=O)CCCCCNc1ccc([N+](=O)[O-])c3nonc13)c1ccccc1-2)OC(=O)CCCCCCCCCCCCCCCCC [GPL (XIVa), (2S,3S)-4-(8-(6-((7-nitrobenzo[c][1,2,5]oxadiazol-4-yl)amino)hexanoyl)-8,9-dihydro-1H-dibenzo[b,f][1,2,3]triazolo[4,5-d]azocin-1-yl)-1-(phosphonooxy)-3-(stearoyloxy)butan-2-yl oleate] | – | participates in the formation of giant liposomes | only interacts with liposomes containing GPL (XIVa)

From patent US20250215028A1, “SYNTHETIC GLYCEROPHOSPHOLIPIDS COMPRISING AT LEAST ONE REACTIVE FUNCTION, PROCESS FOR PREPARING SAME AND USES THEREOF IN DIFFERENT APPLICATIONS” (UNIVERSITE DE ROUEN-NORMANDIE, priority 2022, published 2025)
